Results on 6 molecules are retold here after DBAASP.

What all share (test): ≥ marks a high value that may be exact or a test limit, other limits are often not marked, values filed in µg/mL are converted to µM
Experiment [1] has as its system Candida albicans NCTC 1467.
Experiment [2] deals with Enterococcus faecalis NCTC 12697.
Experiment [3] deals with Escherichia coli NCTC 10418.
For experiment [4], the system named is Pseudomonas aeruginosa ATCC 27853.
Experiment [5] concerns Staphylococcus aureus ATCC 12493.
Experiment [6] concerns Staphylococcus aureus NCTC 10788.
Experiment [7] relates to Bacillus megaterium Bm11.
The subject of experiment [8] is Enterobacter cloacae ATCC 49141.
For experiment [9], the system named is Enterococcus faecalis ATCC 19433.
The test system of experiment [10] is Escherichia coli ATCC 25922.
Experiment [11] has as its system Klebsiella aerogenes ATCC 35029.
For experiment [12], the system named is Staphylococcus aureus ATCC 6538P.
Experiment [13] deals with Streptococcus pyogenes ATCC 49399.
In experiment [14] the test system is Bacillus subtilis KCTC 1021.
In experiment [15] the test system is Candida albicans.
Experiment [16] relates to Escherichia coli.
For experiment [17], the system named is Klebsiella pneumoniae ATCC 10031.
Experiment [18] relates to Micrococcus luteus ATCC 4698.
Experiment [19] has as its system Proteus mirabilis ATCC 25933.
The test system of experiment [20] is Pseudomonas aeruginosa ATCC 9027.
Experiment [21] relates to Pseudomonas putida.
The test system of experiment [22] is Saccharomyces cerevisiae.
For experiment [23], the system named is Salmonella enterica subsp. enterica serovar Typhimurium ATCC 14028.
Experiment [24] deals with Serratia marcescens.
In experiment [25] the test system is Shigella dysenteriae ATCC 9752.
The test system of experiment [26] is Staphylococcus epidermidis ATCC 12228.
Experiment [27] concerns Candida albicans ATCC 10231.
Experiment [28] has as its system Candida krusei CBS 573.
Experiment [29] concerns Candida parapsilosis CBS 604.
The subject of experiment [30] is Saccharomyces cerevisiae SZMC 0644.
Experiment [31] deals with Escherichia coli ATCC 35218.
Experiment [32] concerns Klebsiella oxytoca ATCC 13182.
In experiment [33] the test system is Klebsiella pneumoniae ATCC 700603.
In experiment [34] the test system is Klebsiella pneumoniae KpC+001825971.
Experiment [35] has as its system Serratia marcescens ATCC 13880.
Experiment [36] concerns Staphylococcus aureus ATCC 80958.
Experiment [37] deals with Candida albicans MDM8.
The test system of experiment [38] is Escherichia coli SBS 363.
Experiment [39] has as its system Micrococcus luteus A270.

Values after ≈ are worked out from the molar mass of the structure shown.

On to `CC[C@H](C)[C@H](NC(=O)CN)C(=O)N[C@@H](CCSC)C(=O)N[C@@H](CC(=O)O)C(=O)N[C@H](C(=O)N[C@H](C(=O)N[C@@H](CCCCN)C(=O)N[C@@H](CC(N)=O)C(=O)N[C@@H](C)C(=O)N[C@@H](C)C(=O)N[C@@H](CCCCN)C(=O)N[C@@H](CC(N)=O)C(=O)N[C@@H](CC(C)C)C(=O)N[C@@H](C)C(=O)NCC(=O)N[C@@H](CCC(N)=O)C(=O)N[C@@H](CC(C)C)C(=O)N[C@@H](CC(C)C)C(=O)N[C@@H](CC(=O)O)C(=O)N[C@@H](CCCCN)C(=O)N[C@@H](CC(C)C)C(=O)N[C@@H](CCCCN)C(=O)N[C@H]1CSSC[C@@H](C(=O)O)NC(=O)[C@H](C)NC(=O)[C@H]([C@@H](C)O)NC(=O)[C@H]([C@@H](C)CC)NC(=O)[C@H](CO)NC1=O)C(C)C)[C@@H](C)O` [GIMDTVKNAAKNLAGQLLDKLKCSITAC], for which the MIC (usually the smallest concentration in the dilution series that meets the test's criterion for growth inhibition) in experiment [1] was ≥ 512 µM; in experiment [2] it was ≥ 512 µM; in experiment [3] it was ≥ 512 µM; in [4], > 512 µM; in experiment [5], ≥ 512 µM; in [6], ≥ 512 µM.

For `CC[C@H](C)[C@H](NC(=O)[C@H](CCCN=C(N)N)NC(=O)[C@@H](NC(=O)[C@H](CCCN=C(N)N)NC(=O)[C@H](Cc1c[nH]c2ccccc12)NC(=O)[C@H](CCCN=C(N)N)NC(=O)[C@H](Cc1ccccc1)NC(=O)[C@H](CCCN=C(N)N)NC(=O)[C@@H]1CCCN1)[C@@H](C)CC)C(N)=O` [PRFRWRIRI], the MIC was 2.5 µM (≈ 3.25 µg/mL) in [7]; ≥ 80 µM in experiment [8]; ≥ 80 µM in [9]; 3.54 µM (≈ 4.59 µg/mL) in experiment [10]; ≥ 80 µM in experiment [11]; 20 µM (≈ 26 µg/mL) in experiment [4]. The MIC in experiment [12] is ≥ 80 µM; in [13], 2.5 µM (≈ 3.25 µg/mL).

For the molecule `CC[C@H](C)[C@@H]1NC(=O)[C@H](C)NC(=O)[C@@H](NC(=O)[C@H](Cc2ccccc2)NC(=O)[C@@H](NC(=O)[C@H](CO)NC(=O)[C@@H]2CCCN2C(=O)[C@H](CC(C)C)NC(=O)[C@@H](NC(=O)[C@H](CCCCN)NC(=O)[C@H](CO)NC(=O)[C@H](C)NC(=O)[C@@H](NC(=O)[C@H](CCCCN)NC(=O)[C@H](Cc2ccccc2)NC(=O)[C@H](CC(C)C)NC(=O)[C@H](C)NC(=O)CNC(=O)[C@H](CC(C)C)NC(=O)[C@@H](N)Cc2ccccc2)C(C)C)C(C)C)C(C)C)CSSC[C@@H](C(=O)O)NC(=O)[C@H](CCCCN)NC(=O)[C@H](CCCCN)NC(=O)[C@H]([C@@H](C)O)NC1=O` [FLGALFKVASKVLPSVFCAITKKC], the MIC in experiment [14] is 3.89 µM (≈ 9.99 µg/mL); in experiment [15], 19.4 µM (≈ 50 µg/mL); in experiment [16] it was 19.4 µM (≈ 50 µg/mL); in experiment [17] it was 19.4 µM (≈ 50 µg/mL); in experiment [18] it was 0.972 µM (≈ 2.5 µg/mL); in [19] it was ≥ 77.8 µM. In addition, the MIC was 38.9 µM (≈ 99.9 µg/mL) in experiment [20]; 19.4 µM (≈ 50 µg/mL) in experiment [21]; 19.4 µM (≈ 50 µg/mL) in experiment [22]; 77.8 µM (≈ 200 µg/mL) in experiment [23]; ≥ 77.8 µM in [24]; 19.4 µM (≈ 50 µg/mL) in [25]. The same molecule displayed an MIC in experiment [26] of 3.89 µM (≈ 9.99 µg/mL).

Regarding `CC[C@H](C)[C@H](N)C(=O)N[C@@H](C)C(=O)NCC(=O)N[C@@H](C)C(=O)N[C@@H](Cc1cnc[nH]1)C(=O)N[C@@H](CCCCN)C(=O)N[C@H]1CSSC[C@@H](C(=O)N[C@@H](CC(N)=O)C(=O)N[C@@H](CO)C(=O)N2CCC[C@H]2C(=O)N[C@@H](CC(N)=O)C(=O)O)NC(=O)[C@@H]2CSSC[C@H](NC(=O)[C@@H]3CCCN3C(=O)[C@H](CCCCN)NC1=O)C(=O)N[C@@H](Cc1ccc(O)cc1)C(=O)NCC(=O)N[C@@H](Cc1ccc(O)cc1)C(=O)N[C@@H](CCCCN)C(=O)N[C@@H]([C@@H](C)O)C(=O)N[C@@H](CC(N)=O)C(=O)N[C@@H](CO)C(=O)N2` [IAGAHKCKPCYGYKTNSCCNSPN], the MIC in experiment [27], in experiment [28], in [29] and in [30] was 20.3 µM (≈ 49.9 µg/mL) throughout.

In the case of `CC(C)C[C@H](NC(=O)[C@H](Cc1ccc(O)cc1)NC(=O)[C@H](C)NC(=O)[C@H](CCCN=C(N)N)NC(=O)[C@H](Cc1ccccc1)NC(=O)[C@H](Cc1ccc(O)cc1)NC(=O)[C@H](CCCCN)NC(=O)[C@@H](NC(=O)[C@H](Cc1c[nH]c2ccccc12)NC(=O)[C@H](CCCN=C(N)N)NC(=O)[C@H](Cc1cnc[nH]1)NC(=O)[C@H](CC(C)C)NC(=O)[C@H](Cc1ccccc1)NC(=O)[C@H](CCCN=C(N)N)NC(=O)[C@@H](NC(=O)[C@H](Cc1ccc(O)cc1)NC(=O)[C@H](CCCCN)NC(=O)[C@@H](N)CCCN=C(N)N)C(C)C)C(C)C)C(=O)O` [RKYVRFLHRWVKYFRAYL], the minimal inhibitory concentration (MIC) in [31] came to 7.35 µM (≈ 18.4 µg/mL); in [32], 1.84 µM (≈ 4.6 µg/mL); in experiment [33], 3.67 µM (≈ 9.18 µg/mL); in [34], 25.6 µM (≈ 64.1 µg/mL); in experiment [35] it was 1.84 µM (≈ 4.6 µg/mL); in experiment [36] it was 7.35 µM (≈ 18.4 µg/mL).

As to `CC[C@H](C)[C@H](NC(=O)[C@H](CC(C)C)NC(=O)[C@@H]1CCCN1C(=O)[C@H](CC(C)C)NC(=O)[C@H](CC(C)C)NC(=O)[C@@H](N)CO)C(=O)N[C@@H](CCCN=C(N)N)C(=O)N[C@@H](CCCCN)C(=O)N[C@@H](CC(C)C)C(=O)N[C@H](C(=O)N[C@H](C(N)=O)[C@@H](C)O)[C@@H](C)CC` [SLLPLIRKLIT], the MIC in [37] was 1.56 µM (≈ 1.97 µg/mL); in experiment [38] it was 3.12 µM (≈ 3.95 µg/mL); in [39], 1.56 µM (≈ 1.97 µg/mL).
